Measured values as given in patent US8323971B2, “Differentiation of pluripotent cells into primary germ layer progenitors” (Cambridge Enterprise Limited, priority 2006, dated 2012).

System: hESCs
Assay: Real time PCR of hESCs after addition of BMP4 in CDM (extra-embryonic differentiation)
Assay type: cell-based, human
Conditions: 10 ng/ml in CDM
Description: hESCs grown in Feeder free and serum free conditions were harvested using 5 mg/ml collagenase IV then plated into plates pre-coated with fibronectin. hESCs were grown for 48 hours in CDM supplemented with Activin (10 ng/ml, RandD systems) and FGF2 (12 ng/ml, RandD systems). To induce extra-embryonic differentiation, hESCs were grown for 5 additional days in CDM supplemented with BMP4 (10 ng/ml, RandD systems). To obtain neuroectoderm progenitors, hESCs were grown in CDM or in CDM-PVA in the presence of SB431542 (10 μM Tocris) and FGF2 (12 ng/ml, RandD systems) for 7 additional days. The resulting cells were grown in non-adherent conditions for 10 days and then plated back for 5 additional days in CDM to obtain fully differentiated neuronal cells. To obtain mesendoderm precursors, hESCs were grown for 3 additional days in CDM-PVA in the presence of SU5402 (10 μM, Calbiochem) and Activin (5 ng/ml, RandD systems). On the fifth day after passaging, the resulting cells were grown in CDM-PVA in the presence of BMP4 (10 ng/ml, RandD systems), FGF2 (20 ng/ml, RandD systems) and Activin (30 ng/ml or 100 ng/ml, RandD systems).
Total RNAs were extracted from hESCs or differentiated progenitors using the RNeasy Mini or Micro Kits (Qiagen). Each sample was treated with RNAse-Free DNAse (Qiagen) in order to avoid DNA contamination. […]

## BMP4: Bone Morphogenetic Protein 4 growth factor
  expression of extra-embryonic markers including GATA6 and H19: strongly enhanced
After 16 hours
  level of Oct-4 transcripts: significant decrease
